{"source": "patent US20100240537A1", "about": "“Substituted 6-(alkylbenzylamino)purine derivatives for use as cytokinin receptor antagonists and preparations containing these derivatives” (priority 2007, published 2010)", "key": {"[1]": {"tested_on": "A. thaliana wild-type and double receptor mutant seedlings", "experiment": "Lateral root formation of Arabidopsis seedlings", "format": "in vivo, Arabidopsis thaliana", "settings": "1 and 5 nM BA alone, MS medium", "procedure": "(A) Number of lateral roots formed by wild-type Arabidopsis seedlings (11 DAG)—from left: DMSO control, formation in the presence of cytokinin BA, or compound 8, and antagonism when both compounds were added. (B) Increase in number of lateral roots found with WT and double-receptor mutant seedlings grown on medium containing compound 8.\nCytokinins are known as negative regulators of root growth and development. We grew A. thaliana wild-type and double receptor mutant seedlings with decreased perception of cytokinins on MS medium containing either 1 and 5 nM cytokinin BA to confirm the cytokinin inhibitory effect on initiation of lateral roots, or 1 and 10 nM compound 8, or combination of these substances in concentrations indicated in FIG. 4A."}, "[2]": {"tested_on": "Arabidopsis seedlings (wild-type, receptor double mutants)", "experiment": "Primary root length of Arabidopsis seedlings", "format": "in vivo", "settings": "1 μM", "procedure": "FIG. 5 Effect of compound 8 on primary root length of Arabidopsis seedlings. Increase in the length of the primary roots observed in ahk2 ahk3 double mutant seedlings (6 DAG) grown on medium containing 1 μM compound 8.\nHowever, when 1 μM compound 8 was applied to the growth media of ahk2 ahk3 double mutants, significant increase (about 15%) in the length of the primary roots was observed compared to untreated control (FIG. 5)."}, "[3]": {"biological_target": "T1, AHK3 (Arabidopsis thaliana, UniProt Q9C5U1)", "T1 construct": "expressed in transfected cells; host or cells: Escherichia coli KMI001, plasmid pSTV28-AHK3", "T1 sequence (Q9C5U1 1-1036)": "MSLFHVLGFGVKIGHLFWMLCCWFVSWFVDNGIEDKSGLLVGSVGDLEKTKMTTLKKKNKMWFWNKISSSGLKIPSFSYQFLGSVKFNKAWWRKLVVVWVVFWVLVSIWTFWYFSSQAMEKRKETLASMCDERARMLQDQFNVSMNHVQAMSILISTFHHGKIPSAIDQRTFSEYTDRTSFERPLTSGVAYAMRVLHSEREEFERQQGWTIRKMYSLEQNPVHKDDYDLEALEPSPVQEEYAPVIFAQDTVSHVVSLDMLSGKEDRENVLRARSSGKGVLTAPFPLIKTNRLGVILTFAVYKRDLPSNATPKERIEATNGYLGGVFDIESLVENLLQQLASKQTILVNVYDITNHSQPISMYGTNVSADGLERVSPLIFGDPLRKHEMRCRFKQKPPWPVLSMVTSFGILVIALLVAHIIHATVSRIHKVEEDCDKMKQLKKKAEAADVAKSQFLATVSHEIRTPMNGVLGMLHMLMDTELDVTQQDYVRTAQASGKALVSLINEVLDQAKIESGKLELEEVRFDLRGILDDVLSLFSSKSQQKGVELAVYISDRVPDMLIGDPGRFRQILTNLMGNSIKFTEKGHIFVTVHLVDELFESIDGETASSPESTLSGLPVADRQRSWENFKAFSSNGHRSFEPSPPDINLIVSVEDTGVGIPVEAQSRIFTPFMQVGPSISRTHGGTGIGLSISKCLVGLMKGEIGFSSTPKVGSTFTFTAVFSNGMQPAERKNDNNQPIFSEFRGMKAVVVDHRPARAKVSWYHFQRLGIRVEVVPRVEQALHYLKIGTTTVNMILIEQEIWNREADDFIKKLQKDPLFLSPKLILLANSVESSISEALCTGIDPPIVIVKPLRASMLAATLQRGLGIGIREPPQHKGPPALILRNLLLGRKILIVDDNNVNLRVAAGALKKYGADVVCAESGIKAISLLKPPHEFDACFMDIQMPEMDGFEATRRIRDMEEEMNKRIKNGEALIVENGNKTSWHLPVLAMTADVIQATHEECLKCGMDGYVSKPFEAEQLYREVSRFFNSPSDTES", "experiment": "Activation of cytokinin receptor AHK3 in E. coli KMI001 (β-galactosidase reporter)", "format": "cell-based", "procedure": "Escherichia coli strains KMI001 harbouring the plasmid pIN-III-AHK4 or pSTV28-AHK3 were grown overnight at 25° C. in M9 media enriched with 0.1% casamino acids to OD600˜1. The preculture was diluted 1:600 in 1 ml M9 medium containing 0.1% casamino acids and 1 μl stock solution of either the tested compound (10^−7 M−5×10^−5 M) or solvent control (DMSO, ethanol, methanol) were added. The cultures were further grown at 25° C. in microtiter plate, 200 μl per well. […] The cultures were centrifuged and 50 μl aliquots of the supernatant were transferred to microtiter plate containing 2 μl 50 mM 4-methyl umbelliferyl galactoside which was subsequently incubated for 1 h at 37° C. The reaction was stopped by adding 100 μl 0.2 M Na2CO3. Fluorescence was measured using a Fluoroscan Ascent (Labsystems, Finland) at the excitation and emission wavelengths of 365 and 460 nm, respectively. The OD600 of remaining culture was determined and β-galactosidase activity was calculated as nmol 4-methylumbelliferone×OD600^−1×h^−1.\nThe EC50 value, the compound concentration activating the receptor to 50%, was calculated from the obtained dose response curves. The compound functioning as cytokinin antagonists should not activate cytokinin signalling pathway. The values shown in Table 2 are means of three replicates and the entire test was repeated at least twice."}, "[4]": {"tested_on": "wild-type Arabidopsis seeds", "experiment": "Germination of Arabidopsis seeds", "format": "in vivo", "procedure": "Early germination of wild-type Arabidopsis seeds cultivated on MS medium containing indicated concentrations of compound 8 after replacement from dark to white light (16 h light/8 hours dark).\nSubsequent testing confirmed positive effect of the compound 8 on germination. After sowing and pretreatment in dark at 4° C., seeds were transferred to light and ambient temperature. After 30 hours more than 60% of seeds sown on medium containing 1 nM compound 8 were germinating, which was twice as much as in the case of control sown on compound 8 free medium. The number of germinating seeds was further enhanced with higher concentration of compound 8 and 80% of seeds were germinated when 10 nM compound 8 was present in the medium (FIG. 6)."}, "[5]": {"settings": "E. coli KMI001 pSTV28-AHK3, 28 h incubation, n.i. means without interaction, read-out: EC50 AHK3 (activation of cytokinin receptor)"}}, "note": "Like-named read-outs stand apart in the source and are kept apart here."}
{"smiles": "c1ccc(CNc2ncnc3nc[nH]c23)cc1", "note": "[6-(benzylamino)purine]", "values": [{"measurement": "formation of lateral roots", "setting": "[1]", "value": "inhibited formation of lateral roots"}, {"measurement": "elongation of the primary root, wild-type seedlings", "setting": "[2]; wild-type", "value": "almost completely inhibited"}, {"measurement": "EC50", "setting": "[3]", "value": 18.2, "unit": "µM"}]}
{"smiles": "Cc1cccc(CNc2ncnc3nc[nH]c23)c1O", "note": "[Compound 8, 6-(2-hydroxy-3-methylbenzylamino)purine]", "values": [{"measurement": "increase in the length of the primary roots compared to untreated control", "setting": "[2]; ahk2 ahk3 double mutants, 6 DAG", "value": "about 15%"}, {"measurement": "EC50", "setting": "[3]; [5]", "value": "> 100", "unit": "µM"}, {"measurement": "germinating seeds", "setting": "[4]; 1 nM in medium, after 30 hours in light", "value": "more than 60%"}, {"measurement": "germinated seeds", "setting": "[4]; 10 nM in medium", "value": 80, "unit": "%"}]}
{"smiles": "Cc1ccc(O)c(CNc2ncnc3nc[nH]c23)c1", "note": "[Compound 10, 6-(2-hydroxy-5-methylbenzylamino)purine]", "values": [{"measurement": "EC50", "setting": "[3]; [5]", "value": "> 100", "unit": "µM"}]}
